37 molecules from the SangsterLogP compilation can be followed below.

This data set can be described thus: method code SF-HPLC, from DOI: 10.1002/jps.2600840914, PMID: 8537890.
As a reminder, the logP is the decadic logarithm of the partition coefficient of the neutral form, usually between octanol and water. A higher logP goes with a more lipophilic compound. For `Cc1cssc1=O`, the logP came out at 1.33.

As for `CCCc1c(C)ssc1=S`, the logP came out at 3.39.

For the molecule `CCc1cc(=S)ss1`, the logP is 2.31.

In turn, `CCCc1ssc(=S)c1C` showed a logP of 3.42.

`CCCc1cc(=O)ss1` displayed a logP of 2.24.

Turning to `COc1ccc(-c2cc(=S)ss2)cc1`, the logP is 3.82.

The molecule `CCCc1cssc1=O` registered a logP of 2.38.

As for `CCc1c(C)ssc1=S`, the logP is 2.94.

Molecule `CCc1cssc1=S` returned a logP of 2.67.

On to `Cc1cssc1=S`, for which the logP was 2.18.

With `S=c1sscc1-c1ccccc1`, the logP stood at 3.2.

In the case of `CCc1ssc(=S)c1-c1ccccc1`, the logP turned out to be 3.52.

`Cc1cc(=O)ss1`: the logP was determined as 1.26.

Consider `S=c1cc(Cc2ccccc2)ss1`, for which the logP stood at 3.43.

As for `S=c1ssc2c1CCCCCC2`, the logP is 3.75.

`Cc1ccc(-c2cssc2=S)cc1` had a logP of 3.73.

For `Cc1ssc(=S)c1C`, the logP worked out at 2.45.

Regarding `S=c1ssc2c1CCCCC2`, the logP turned out to be 3.27.

Take `S=c1ssc2ccccc12`: the logP worked out at 3.57.

Regarding `Cc1ssc(=O)c1C`, the logP amounted to 1.73.

In turn, `CCc1cc(=O)ss1` returned a logP of 1.69.

Take `CCCCc1cssc1=S`: the logP is 3.7.

Regarding `S=c1ccss1`, the logP was found to be 1.58.

Molecule `S=c1cc(-c2ccccc2)ss1` came in with a logP of 3.67.

Take `CCCCCc1cssc1=S`: the logP is 4.06.

Consider `Cc1c(-c2ccccc2)ssc1=S`, for which the logP was 3.95.

`S=c1ssc2c1CCC2` displayed a logP of 2.53.

`CCCc1cc(=S)ss1` registered a logP of 2.83.

For `Cc1ccc(-c2cc(=S)ss2)cc1`, the logP turned out to be 4.26.

`CCCc1cssc1=S` came in with a logP of 3.18.

Molecule `CCCc1ssc(=S)c1CC` came in with a logP of 3.76.

`Cc1ssc(=S)c1Cc1ccccc1` showed a logP of 3.78.

Regarding `COc1ccc(-c2ssc(=S)c2C)cc1`, the logP is 4.1.

Consider `Cc1cc(=S)ss1`, for which the logP came out at 1.87.

In turn, `CCc1ssc(=S)c1C` had a logP of 2.95.

For `Cc1ssc(=S)c1-c1ccccc1`, the logP amounted to 3.17.

For the molecule `CCc1ssc(=S)c1CC`, the logP was found to be 3.51.
